Tests used:
[1] = tested on: Sandhoff mice; details: Aspirin combined with substrate reduction therapy; cited from earlier work
[2] = Dynamic vapour sorption (DVS); type: physicochemical; details: high relative humidity
Text: In addition, the behaviour of the sample of the Form 3 crystalline form of compound of formula (I) obtained by equilibration with ethyl acetate was investigated under variable water vapour pressures (DVS measurement). At the highest relative humidity of 95% the sample absorbed about 1.2% of water that was released when the relative humidity was returned to the 50% RH. The amount of absorbed water is small, and the water sorption is reversible. […] For Form 2, at high relative humidity the sample absorbed about 18% of water; however, most of the absorbed water was released when the relative humidity was returned to the 50% RH.
Dynamic vapour sorption (DVS) measurements were performed with an SPS11-100n “Sorptions Prufsystem” from ProUmid (formerly “Projekt Messtechnik”), August-Nagel-Str. 23, 89079 Ulm (Germany). About 5 mg to 20 mg of sample was put into an aluminum sample pan. Humidity change rates of 5% per hour were used.

[3] = tested on: Sandhoff mouse model (Hexb (−/−)); test: Survival study in Sandhoff mouse model; type: in vivo; details: Hexb (−/−) mice, treated vs vehicle/untreated
Text: (strain: B6; 129S4-Hexbtm1Rlp/J). The mouse line was maintained by crossing homozygous −/− males with heterozygous females (generating litters with 50%−/− and 50%+/−) under specific pathogen-free conditions. All mice were housed in individual, ventilated cages (IVCs) with 12-h light/dark cycles with food and water ad libitum. Young-adult mice of the same genetic C57BL/6 background were from Jackson Laboratories. Breeding of Hexb mutants will target needs of the “Long-term” cohorts first, followed by the “16-week” biomarker study.
Cohort 1: There were a total of 6 dose groups and 2 vehicle groups using both Hexb+/− and Hexb−/− animals. […] Dosing occurred daily from day 30 to day 170, unless the animal was prematurely euthanized per protocol.
A subsequent study to explore lower doses was also performed (in the same manner as in Example 2) in which doses of 0.02, 0.06, 0.2 and 0.5 mg/kg/day were used. […] It is unclear why the 0.06 mg/kg/day had less survival as formulations were checked and confirmed accurate dosing (internal data).

CC(=O)Oc1ccccc1C(=O)O [Aspirin]
maximum improvement of survival [1]: 73% | synergy, improvement in survival [1]: 11%

OC[C@H]1[C@@H](O)[C@H](O)[C@@H](O)CN1CCCCCOCc1ccc(-c2ccccc2)c(F)c1 [Form 2]
water absorbed (DVS) [2]: about 18%

OC[C@H]1[C@@H](O)[C@H](O)[C@@H](O)CN1CCCCCOCc1ccc(-c2ccccc2)c(F)c1 [compound of formula (I)]
increase in survival / life expectancy [3]: at least 22%

From US20250120958A1, “Treatment of GM2 Gangliosidosis” (Azafaros B.V., priority 2022, published 2025)
